Laboratory results: ChEMBL document CHEMBL3046134, “Synthesis and antiviral activity of benzimidazolyl- and triazolyl-1,3,5-triazines” (Med Chem Res, 2012)
≈ marks a conversion by molar mass, not a printed value.

Columns and labels:
Human alphaherpesvirus 1 = experiment: Antiviral activity against Human herpesvirus 1 infected African green monkey Vero cells assessed as protection against virus-induced cytopathic effect after 3 days by plaque reduction assay; format: functional, organism-based; conditions: Human alphaherpesvirus 1, Vero, 72 h
[1] = Selectivity index, ratio of CC50 for african green monkey Vero cells to EC50 for HSV1 infected in African green monkey Vero cells
[2] = Cytotoxicity against Chlorocebus aethiops (African green monkey) Vero cells assessed as cell viability after 3 days by Alamar blue assay; format: cell-based; conditions: chlorocebus sabaeus

Row | SMILES | EC50 (Human alphaherpesvirus 1) | Ratio CC50/EC50 [1] | CC50 at 72 h [2]
1 | Cc1ccc2[nH]c(SCc3nc(N)nc(Nc4ccccc4C)n3)nc2c1 | > 10 µg/mL | – | –
2 | COc1ccc(Nc2nc(N)nc(CSc3nnc(-c4ccccc4)n3-c3ccccc3)n2)cc1 | > 10 µg/mL | – | –
3 | Cc1ccccc1Nc1nc(N)nc(CSc2nnc(-c3ccccc3)n2-c2ccccc2)n1 | 7.5 µg/mL (≈ 16.1 µM) | 234 | 1750 µg/mL (≈ 3750 µM)
4 | COc1ccc(Nc2nc(N)nc(CSc3nnc(-c4ccncc4)n3-c3ccccc3)n2)cc1 | 7 µg/mL (≈ 14.5 µM) | 215 | 1500 µg/mL (≈ 3100 µM)
5 | Cc1ccccc1Nc1nc(N)nc(CSc2nnc(-c3ccncc3)n2-c2ccccc2)n1 | 6 µg/mL (≈ 12.8 µM) | 275 | 1650 µg/mL (≈ 3530 µM)
6 | COc1ccc(Nc2nc(N)nc(CSc3nnc(-c4ccccc4)n3/N=C/c3ccccc3)n2)cc1 | 8 µg/mL (≈ 15.7 µM) | 188 | 1500 µg/mL (≈ 2940 µM)
7 | Cc1ccccc1Nc1nc(N)nc(CSc2nnc(-c3ccccc3)n2/N=C/c2ccccc2)n1 | 3.5 µg/mL (≈ 7.09 µM) | 358 | 1250 µg/mL (≈ 2530 µM)
8 | Cc1ccccc1Nc1nc(N)nc(CSc2nnc(-c3ccccc3)n2/N=C/c2ccc(Br)cc2)n1 | 5 µg/mL (≈ 8.73 µM) | 300 | 1500 µg/mL (≈ 2620 µM)
9 | Nc1nc(CSc2nc3ccccc3[nH]2)nc(Nc2ccccc2)n1 | > 10 µg/mL | – | –
10 | Cc1ccc(Nc2nc(N)nc(CSc3nc4ccccc4[nH]3)n2)cc1 | > 10 µg/mL | – | –
11 | Nc1nc(CSc2nc3ccccc3[nH]2)nc(Nc2ccc(Cl)cc2)n1 | 8.5 µg/mL (≈ 22.1 µM) | 175 | 1500 µg/mL (≈ 3910 µM)
12 | COc1ccc(Nc2nc(N)nc(CSc3nc4ccccc4[nH]3)n2)cc1 | > 10 µg/mL | – | –
13 | Cc1ccccc1Nc1nc(N)nc(CSc2nc3ccccc3[nH]2)n1 | 9 µg/mL (≈ 24.8 µM) | – | > 2000 µg/mL
14 | Cc1ccc2[nH]c(SCc3nc(N)nc(Nc4ccccc4)n3)nc2c1 | > 10 µg/mL | – | –
15 | Cc1ccc(Nc2nc(N)nc(CSc3nc4cc(C)ccc4[nH]3)n2)cc1 | > 10 µg/mL | – | –
16 | Nc1nc2c(ncn2COCCO)c(=O)[nH]1 [ACYCLOVIR] | 1.5 µg/mL (≈ 6.66 µM) | 850 | 1280 µg/mL (≈ 5660 µM)
